Where two headings read alike, the source gives them in different places.
Experiments:
CHRM3 = CHRM3 (Homo sapiens, UniProt P20309); assay: SAFETYscan Calcium Flux CHRM3 Agonist; assay type: cell-based
From the text: (§1) Supplement jm3c00155_si_002.xlsx, sheet "SAFETYScan" | column: RC50 (uM); Max Response

EDNRA [1] = target: T1, EDNRA (Homo sapiens, UniProt P25101); assay: SAFETYscan Calcium Flux EDNRA Antagonist; assay type: cell-based
T1 sequence (P25101 21-427): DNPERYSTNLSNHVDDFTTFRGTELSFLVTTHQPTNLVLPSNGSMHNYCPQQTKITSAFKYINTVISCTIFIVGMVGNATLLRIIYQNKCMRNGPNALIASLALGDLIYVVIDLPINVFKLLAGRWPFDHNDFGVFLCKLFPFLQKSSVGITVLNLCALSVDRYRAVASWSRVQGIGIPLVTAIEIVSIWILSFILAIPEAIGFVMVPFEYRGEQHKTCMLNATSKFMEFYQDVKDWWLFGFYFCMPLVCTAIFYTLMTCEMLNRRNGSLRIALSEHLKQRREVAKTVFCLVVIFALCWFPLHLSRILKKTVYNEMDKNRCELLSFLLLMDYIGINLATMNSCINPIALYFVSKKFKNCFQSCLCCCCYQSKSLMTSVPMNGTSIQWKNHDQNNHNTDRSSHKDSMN
From the text: as §1

ADORA2A = ADORA2A (Homo sapiens, UniProt P29274); assay: SAFETYscan Calcium Flux ADORA2A Antagonist; assay type: cell-based
ADORA2A, sequence (P29274 whole entry): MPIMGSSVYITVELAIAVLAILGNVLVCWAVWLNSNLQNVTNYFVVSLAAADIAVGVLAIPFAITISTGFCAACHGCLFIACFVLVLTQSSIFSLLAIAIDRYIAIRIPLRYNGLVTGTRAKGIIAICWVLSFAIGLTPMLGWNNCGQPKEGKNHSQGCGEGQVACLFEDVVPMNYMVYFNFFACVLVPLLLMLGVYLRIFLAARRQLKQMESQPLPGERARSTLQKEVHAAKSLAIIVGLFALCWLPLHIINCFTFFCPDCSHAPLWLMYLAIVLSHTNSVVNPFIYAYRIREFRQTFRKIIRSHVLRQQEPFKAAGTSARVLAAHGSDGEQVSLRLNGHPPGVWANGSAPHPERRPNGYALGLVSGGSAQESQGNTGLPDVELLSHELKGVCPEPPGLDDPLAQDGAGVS
From the text: as §1

CHRM2 = target: T2, CHRM2 (Homo sapiens, UniProt P08172); assay: SAFETYscan cAMP CHRM2 Antagonist; assay type: cell-based
T2 sequence (P08172 1-466): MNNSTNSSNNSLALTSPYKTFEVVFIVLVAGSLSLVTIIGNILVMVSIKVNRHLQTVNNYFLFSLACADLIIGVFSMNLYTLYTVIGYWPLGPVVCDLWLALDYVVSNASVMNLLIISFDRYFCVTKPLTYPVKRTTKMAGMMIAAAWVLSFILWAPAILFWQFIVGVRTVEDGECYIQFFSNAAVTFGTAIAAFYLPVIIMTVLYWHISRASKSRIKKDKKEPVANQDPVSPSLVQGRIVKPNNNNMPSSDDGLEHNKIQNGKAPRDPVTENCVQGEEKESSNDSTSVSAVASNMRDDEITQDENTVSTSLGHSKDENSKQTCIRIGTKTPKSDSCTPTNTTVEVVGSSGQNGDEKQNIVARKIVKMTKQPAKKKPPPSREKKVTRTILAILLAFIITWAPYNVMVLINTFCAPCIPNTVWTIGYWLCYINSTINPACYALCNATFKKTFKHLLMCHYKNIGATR
From the text: as §1

HTR1A = target: T3, HTR1A (Homo sapiens, UniProt P08908); assay: SAFETYscan cAMP HTR1A Agonist; assay type: cell-based
T3 sequence (P08908 1-422): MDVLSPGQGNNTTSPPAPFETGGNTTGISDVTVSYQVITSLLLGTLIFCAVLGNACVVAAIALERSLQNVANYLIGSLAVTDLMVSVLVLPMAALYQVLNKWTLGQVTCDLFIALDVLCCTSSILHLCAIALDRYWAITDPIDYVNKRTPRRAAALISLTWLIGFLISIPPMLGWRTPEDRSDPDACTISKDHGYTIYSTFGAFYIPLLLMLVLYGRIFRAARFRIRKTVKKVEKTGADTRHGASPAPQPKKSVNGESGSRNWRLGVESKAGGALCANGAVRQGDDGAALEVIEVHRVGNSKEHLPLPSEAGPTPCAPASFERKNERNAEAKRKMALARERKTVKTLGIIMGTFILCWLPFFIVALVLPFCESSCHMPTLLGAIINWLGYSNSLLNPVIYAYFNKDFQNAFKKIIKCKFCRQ
From the text: as §1

EDNRA [2] = target: T1, EDNRA; assay: SAFETYscan Calcium Flux EDNRA Agonist; assay type: cell-based
From the text: as §1

GABAA = GABAA (Homo sapiens, UniProt P14867+P18507+P47870); assay: SAFETYscan Ion Channel GABAA Blocker; assay type: cell-based
GABAA, sequence (P14867 28-456): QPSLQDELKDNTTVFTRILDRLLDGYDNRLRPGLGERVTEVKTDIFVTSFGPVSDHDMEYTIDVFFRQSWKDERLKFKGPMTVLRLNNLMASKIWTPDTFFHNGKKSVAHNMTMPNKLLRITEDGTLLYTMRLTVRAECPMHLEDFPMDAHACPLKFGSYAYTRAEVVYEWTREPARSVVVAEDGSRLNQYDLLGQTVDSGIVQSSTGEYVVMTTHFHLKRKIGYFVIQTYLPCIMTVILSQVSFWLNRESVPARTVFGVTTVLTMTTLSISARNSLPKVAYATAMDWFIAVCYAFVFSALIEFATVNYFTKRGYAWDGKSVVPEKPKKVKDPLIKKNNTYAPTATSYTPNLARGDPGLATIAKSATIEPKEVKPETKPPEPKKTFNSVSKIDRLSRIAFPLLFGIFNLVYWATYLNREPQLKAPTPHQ
GABAA, sequence (P47870 26-512): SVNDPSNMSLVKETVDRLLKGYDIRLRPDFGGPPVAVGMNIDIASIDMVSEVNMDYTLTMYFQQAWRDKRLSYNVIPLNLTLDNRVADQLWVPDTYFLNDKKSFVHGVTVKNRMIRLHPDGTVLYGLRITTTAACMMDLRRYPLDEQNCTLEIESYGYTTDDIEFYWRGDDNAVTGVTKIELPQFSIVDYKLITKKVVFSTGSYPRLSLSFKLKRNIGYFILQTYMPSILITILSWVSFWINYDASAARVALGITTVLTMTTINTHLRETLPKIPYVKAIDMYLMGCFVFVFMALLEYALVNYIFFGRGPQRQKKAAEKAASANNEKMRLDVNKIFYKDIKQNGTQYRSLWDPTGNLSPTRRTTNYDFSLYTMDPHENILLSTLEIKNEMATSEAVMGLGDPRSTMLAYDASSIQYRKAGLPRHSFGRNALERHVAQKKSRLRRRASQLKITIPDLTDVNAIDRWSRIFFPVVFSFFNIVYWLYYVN
GABAA, sequence (P18507 40-475): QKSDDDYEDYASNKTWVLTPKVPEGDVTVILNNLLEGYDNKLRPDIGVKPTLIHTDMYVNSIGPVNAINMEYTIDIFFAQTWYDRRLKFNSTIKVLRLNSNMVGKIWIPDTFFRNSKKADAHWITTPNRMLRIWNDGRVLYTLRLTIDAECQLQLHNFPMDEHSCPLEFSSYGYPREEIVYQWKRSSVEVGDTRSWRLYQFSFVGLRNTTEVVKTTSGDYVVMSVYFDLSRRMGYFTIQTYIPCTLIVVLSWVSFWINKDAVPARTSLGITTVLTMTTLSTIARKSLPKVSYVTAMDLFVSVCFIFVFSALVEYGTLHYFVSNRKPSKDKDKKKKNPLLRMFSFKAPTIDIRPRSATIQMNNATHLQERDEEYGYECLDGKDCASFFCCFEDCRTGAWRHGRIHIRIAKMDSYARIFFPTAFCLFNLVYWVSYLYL
From the text: as §1

ROCK1 = ROCK1 (Homo sapiens, UniProt Q13464); assay: SAFETYscan Kinases Binding ROCK1 Inhibitor
ROCK1, sequence (Q13464 whole entry): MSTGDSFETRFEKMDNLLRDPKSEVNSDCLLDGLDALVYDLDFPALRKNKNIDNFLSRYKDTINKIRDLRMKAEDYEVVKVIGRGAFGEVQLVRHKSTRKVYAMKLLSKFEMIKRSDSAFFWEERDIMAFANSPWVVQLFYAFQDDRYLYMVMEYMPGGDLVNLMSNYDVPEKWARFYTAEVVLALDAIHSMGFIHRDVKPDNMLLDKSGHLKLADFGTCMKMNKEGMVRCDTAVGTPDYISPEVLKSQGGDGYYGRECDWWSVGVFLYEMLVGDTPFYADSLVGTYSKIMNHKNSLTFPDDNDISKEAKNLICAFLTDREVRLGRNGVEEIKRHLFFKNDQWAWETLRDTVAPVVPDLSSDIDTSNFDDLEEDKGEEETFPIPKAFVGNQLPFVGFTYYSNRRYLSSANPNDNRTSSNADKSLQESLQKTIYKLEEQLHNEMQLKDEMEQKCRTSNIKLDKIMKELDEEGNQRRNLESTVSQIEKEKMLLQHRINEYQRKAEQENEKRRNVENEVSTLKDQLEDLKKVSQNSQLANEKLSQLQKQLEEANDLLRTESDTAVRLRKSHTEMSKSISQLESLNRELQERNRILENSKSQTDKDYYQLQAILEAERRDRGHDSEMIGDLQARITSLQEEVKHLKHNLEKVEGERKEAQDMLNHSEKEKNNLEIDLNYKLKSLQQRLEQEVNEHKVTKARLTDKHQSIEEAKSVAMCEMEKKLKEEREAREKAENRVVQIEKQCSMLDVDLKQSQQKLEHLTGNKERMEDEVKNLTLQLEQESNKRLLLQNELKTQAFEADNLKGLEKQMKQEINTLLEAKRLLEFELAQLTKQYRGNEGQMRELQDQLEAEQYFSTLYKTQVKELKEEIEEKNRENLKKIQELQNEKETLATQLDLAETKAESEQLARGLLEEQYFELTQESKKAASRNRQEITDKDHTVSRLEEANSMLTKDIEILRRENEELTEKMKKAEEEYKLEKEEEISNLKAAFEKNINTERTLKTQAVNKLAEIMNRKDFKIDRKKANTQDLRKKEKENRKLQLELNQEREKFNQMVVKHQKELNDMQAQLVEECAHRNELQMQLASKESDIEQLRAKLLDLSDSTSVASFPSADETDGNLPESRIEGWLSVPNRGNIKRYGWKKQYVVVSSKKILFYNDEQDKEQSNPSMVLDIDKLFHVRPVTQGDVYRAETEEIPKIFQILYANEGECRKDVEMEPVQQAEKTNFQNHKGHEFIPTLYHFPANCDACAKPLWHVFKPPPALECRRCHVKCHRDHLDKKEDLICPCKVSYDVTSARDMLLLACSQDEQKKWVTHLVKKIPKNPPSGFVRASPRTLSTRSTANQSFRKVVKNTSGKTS
From the text: as §1

AVPR1A = AVPR1A (Homo sapiens, UniProt P37288); assay: SAFETYscan Calcium Flux AVPR1A Antagonist; assay type: cell-based
AVPR1A, sequence (P37288 whole entry): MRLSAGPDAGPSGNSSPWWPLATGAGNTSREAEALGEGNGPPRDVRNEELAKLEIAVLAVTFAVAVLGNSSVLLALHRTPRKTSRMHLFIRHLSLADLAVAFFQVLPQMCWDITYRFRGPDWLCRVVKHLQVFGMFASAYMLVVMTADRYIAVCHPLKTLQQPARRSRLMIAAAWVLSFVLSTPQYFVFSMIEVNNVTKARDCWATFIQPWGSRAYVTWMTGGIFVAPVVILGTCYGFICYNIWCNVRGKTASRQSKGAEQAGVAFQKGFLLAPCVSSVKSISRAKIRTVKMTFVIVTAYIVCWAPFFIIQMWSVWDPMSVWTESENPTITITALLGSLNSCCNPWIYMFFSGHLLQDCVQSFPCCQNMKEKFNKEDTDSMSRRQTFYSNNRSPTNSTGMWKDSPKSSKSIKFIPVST
From the text: as §1

human BCL6 BTB domain = human BCL6 BTB domain (Homo sapiens, UniProt P41182); assay: BCL6 TR-FRET assay; assay type: binding
Experimental: 1. Supplementary experimental: protein production, purification and crystallography 1.1 BCL6 constructs used for assays and crystallography […]
cleavage site. For the TR-FRET assay, the Trx-6His-HRV3C-BCL6 protein construct was used without cleaving the tag, as a 6His was needed to bind to the anti-6His-Terbium antibody. […]
For both plasmid constructs described above, transformed BL21-AI E. coli cells were grown in LB media […]
Expression was carried out at 18 °C for 18 hours. Cells were harvested by centrifugation (5500 g for 30 minutes at 4 °C) and stored at -80 °C.
Cells were re-suspended in a buffer composed of 20 mM Tris pH 8, 250 mM NaCl, 1 mM MgCl2, 0.5 mM […]
lysed by sonication followed by centrifugation at 21,000 g for 45 minutes at 4 °C. […]
ResourceQ and gel filtration using a HiLoad 26/60 Superdex75 column in a buffer containing 20 mM HEPES […]
The final protein was assessed for purity and molar mass by SDS-PAGE and high-resolution mass spectrometry, respectively.
For the uncleaved Trx-6His-HRV3C-BCL6 protein construct to be used in TR-FRET, the protein was directly eluted from the HisTrap FF column without HRV-3C treatment, and submitted to Superdex75 gel filtration […]
Test compounds in DMSO or DMSO alone […]
concentration in 0.7% v/v DMSO final. […]

OPRD1 = OPRD1 (Homo sapiens, UniProt P41143); assay: SAFETYscan cAMP OPRD1 Agonist; assay type: cell-based
From the text: as §1

COX2 = COX2 (Homo sapiens, UniProt P35354); assay: SAFETYscan Enzymatic COX2 Inhibitor; assay type: biochemical
COX2, sequence (P35354 18-604): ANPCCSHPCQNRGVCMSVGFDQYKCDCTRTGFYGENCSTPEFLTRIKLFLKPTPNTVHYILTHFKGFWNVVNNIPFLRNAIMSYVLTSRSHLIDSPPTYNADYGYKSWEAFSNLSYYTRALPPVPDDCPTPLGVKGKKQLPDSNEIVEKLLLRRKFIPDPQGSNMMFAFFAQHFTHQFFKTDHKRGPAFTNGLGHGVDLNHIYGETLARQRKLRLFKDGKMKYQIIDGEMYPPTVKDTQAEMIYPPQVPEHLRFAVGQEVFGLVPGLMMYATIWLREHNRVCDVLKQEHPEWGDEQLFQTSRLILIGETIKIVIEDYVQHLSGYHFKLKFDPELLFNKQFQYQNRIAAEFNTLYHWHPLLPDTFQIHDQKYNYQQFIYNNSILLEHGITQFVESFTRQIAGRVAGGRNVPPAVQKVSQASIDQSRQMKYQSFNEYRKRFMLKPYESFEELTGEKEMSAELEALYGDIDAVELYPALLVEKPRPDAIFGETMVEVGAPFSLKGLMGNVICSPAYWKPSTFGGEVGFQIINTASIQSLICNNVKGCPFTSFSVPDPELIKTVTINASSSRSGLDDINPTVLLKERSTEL
From the text: as §1

NMDAR (1A/2B) = NMDAR (1A/2B) (Homo sapiens, UniProt Q05586+Q13224); assay: SAFETYscan Ion Channel NMDAR (1A/2B) Blocker; assay type: cell-based
From the text: as §1

OPRM1 = OPRM1 (Homo sapiens, UniProt P35372); assay: SAFETYscan cAMP OPRM1 Agonist; assay type: cell-based
From the text: as §1

CHRM3, sequence (P20309 whole entry): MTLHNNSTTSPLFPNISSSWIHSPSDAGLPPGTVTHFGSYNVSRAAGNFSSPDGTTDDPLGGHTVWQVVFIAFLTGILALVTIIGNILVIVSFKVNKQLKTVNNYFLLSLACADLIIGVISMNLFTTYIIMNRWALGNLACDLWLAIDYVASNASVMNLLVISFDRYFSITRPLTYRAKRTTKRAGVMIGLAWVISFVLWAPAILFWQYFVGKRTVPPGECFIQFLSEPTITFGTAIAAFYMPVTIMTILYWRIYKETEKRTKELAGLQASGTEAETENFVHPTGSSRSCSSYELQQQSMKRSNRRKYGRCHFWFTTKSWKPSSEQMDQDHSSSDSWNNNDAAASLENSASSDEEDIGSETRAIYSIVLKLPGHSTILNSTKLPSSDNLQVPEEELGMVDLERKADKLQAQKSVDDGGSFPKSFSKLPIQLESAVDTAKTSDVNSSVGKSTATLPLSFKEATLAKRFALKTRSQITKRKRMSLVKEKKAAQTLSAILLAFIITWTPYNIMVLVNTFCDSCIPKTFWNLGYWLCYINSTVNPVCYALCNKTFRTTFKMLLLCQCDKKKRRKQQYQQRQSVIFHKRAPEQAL

Question: What does the source list for `Cn1c(=O)c2c(c3cc(Nc4ccnc(F)c4Cl)ccc31)N[C@@H](C1CC1)C(F)(F)CO2` [compound 17, (S)-10-((3-chloro-2-fluoropyridin-4-yl)amino)-2-cyclopropyl-3,3-difluoro-7-methyl-1,2,3,4-tetrahydro-[1,4]oxazepino[2,3-c]quinolin-6(7H)-one]?
Answer: EC50 (CHRM3): > 10 µM; Emax (CHRM3; CHRM3, Calcium Flux, Agonist, read-out: Max Response): 0%; Emax (EDNRA [1]; read-out: Max Response): 0%; IC50 (EDNRA [1]; read-out: RC50 (IC50)): > 10 µM; Emax (ADORA2A; read-out: Max Response): 10.4%; IC50 (ADORA2A; read-out: RC50 (IC50)): > 10 µM; IC50 (CHRM2): > 10 µM; Emax (CHRM2; CHRM2, cAMP, Antagonist, read-out: Max Response): 0%; EC50 (HTR1A): > 10 µM; Emax (HTR1A; HTR1A, cAMP, Agonist, read-out: Max Response): 45.6%; Emax (EDNRA [2]; read-out: Max Response): 0%; EC50 (EDNRA [2]; read-out: RC50 (EC50)): > 10 µM; IC50 (GABAA): > 10 µM; Emax (GABAA; GABAA, Ion Channel, Blocker, read-out: Max Response): 0%; Emax (ROCK1; read-out: Max Response): 0%; IC50 (ROCK1; read-out: RC50 (IC50)): > 10 µM; Emax (AVPR1A; read-out: Max Response): 2.15%; IC50 (AVPR1A; read-out: RC50 (IC50)): > 10 µM; BCL6 TR-FRET pIC50 mean (human BCL6 BTB domain; Table S1): 8.2095; IC90 (human BCL6 BTB domain; Table S1, read-out: BCL6 TR-FRET IC90 Geometric Mean): 0.0567 µM; IC50 (human BCL6 BTB domain; geometric mean of at least three replicates, read-out: BCL6 TR-FRET IC50): 0.006 µM; IC50 (human BCL6 BTB domain; supplement, read-out: BCL6 TR-FRET IC50 Geometric Mean): 0.0062 µM; EC50 (OPRD1): > 10 µM; Emax (OPRD1; OPRD1, cAMP, Agonist, read-out: Max Response): 23.6%; Emax (COX2; read-out: Max Response): 0%; IC50 (COX2; read-out: RC50 (IC50)): > 10 µM; IC50 (NMDAR (1A/2B)): > 10 µM; Emax (NMDAR (1A/2B); NMDAR (1A/2B), Ion Channel, Blocker, read-out: Max Response): 0%; EC50 (OPRM1): > 10 µM; Emax (OPRM1; OPRM1, cAMP, Agonist, read-out: Max Response): 13.3%

From publication PMC10150366, “Discovery of an In Vivo Chemical Probe for BCL6 Inhibition by Optimization of Tricyclic Quinolinones” (Journal of Medicinal Chemistry, 2023)
